{
  "source": "patent US10934253B2",
  "about": "“Therapeutic compounds and methods” (UNIVERSITY OF TASMANIA, priority 2017, dated 2021)",
  "key": {"[1]": {"system": "DSS-induced colitis in C57BL/6 mice", "test": "Dextran sulfate sodium (DSS) induced colitis mouse model", "type": "in vivo", "details": "2.5% DSS 7 days, 200 mg/kg orally in food once daily, vs DSS controls", "description": "FIGS. 8-11: Ulcerative Colitis mouse model following treatment with representative compound of Formula (I) (UTA77); FIG. 8: Body weight loss; FIG. 9: Stool consistency; FIG. 10: Bloody stools; FIG. 11: Disease activity index. […] UTA77 was formulated with food powder (200 mg/kg of body weight) which was orally administered once daily over a period of 7 days.\nBody weight (refer to FIG. 8), stool consistency (refer to FIG. 9), blood content of stools (refer to FIG. 10), and general disease activity index (refer to FIG. 11) were all assessed following treatment with representative compound of Formula (I), UTA77.\nFemale C57BL/6 mice were used at 7-8 weeks of age having an average body weight≈17 g. Mice were divided randomly into three different groups: • 1. a healthy control group without DSS, • 2. a control group with DSS, • 3. a group treated with DSS and test compound (n=5 per group).\nBody weight of mice were assessed daily over an initial acclimation period of one week (FIG. 8). All mice were non-fasting and had access to food and drinking water (autoclaved tap water) ad libitum. Representative compounds of Formula (I) were formulated with food powder (200 mg/kg of body weight) to produce individual portions that were placed into the cage once a day. Representative compounds of Formula (I) (20 mg/ml) were stirred overnight at 4° C. in 500 ml 0.5% carboxymethylcellulose (CMC) solution. To 37.5 ml of the CMC solution, 41.25 g sucrose, 371.25 g food powder and 0.5% CMC solution were mixed to prepare a food mash, which was aliquoted (2.2 g portions) in weighting trays and individually stored at −20° C. Colitis was induced by supplementing 2.5% w/v of dextran sulphate sodium (DSS, MW=36,000-50,000, colitis grade, MP Biomedicals, USA) in the drinking water of mice from day 0 to day 7 (day of termination). On day 0, all mice were weighed and checked for stool consistency and occult blood before they were exposed to DSS and test compounds. Control animals were only supplied with autoclaved drinking water without DSS, and normal chow pellets, while 2.5% DSS in tap water was provided to the DSS-treated groups from day 0 to day 7. All controls groups were also supplied with 2.2 g of food mash without test compounds. The animals of the drug-treated groups received 200 mg/kg of test compounds in food mash with 2.5% of DSS in water from day 0 to day 7. Body weight (refer to FIG. 8), stool consistency (refer to FIG. 9), blood content of stools (refer to FIG. 10) were recorded daily. The Disease Activity Index (DAI) (FIG. 11) was calculated according to scoring Table 9 below. Each parameter was scored independently and all three parameters were added to calculate the DAI."}, "HepG2 cells": {"system": "HepG2 cells", "test": "Cell viability in the presence of a mitochondrial inhibitor (rotenone 10 μM)", "type": "cell-based", "details": "Homo sapiens, HepG2, 48 h, read-out: CELL VIABILITY [%]", "description": "Cytoprotection of HepG2 cells by naphthoquinones was quantified in the presence of the mitochondrial toxin, rotenone. Briefly, HepG2 cells were seeded in 96-well plates at 5000 cells/well in DMEM with 0.3 g/l glucose, 10% FBS and Penicillin-Streptomycin-Glutamine. After overnight incubation under standard conditions, cells were treated with the test compounds (10 μM) for 2 days before cells were challenged with 1 μM rotenone in the presence of 10 μM test compounds in Hank's balanced salt solution (HBSS) for 6 hours. This was followed by post-incubation for an additional 18 hours with only 10 μM test compounds in HBSS. For measurement of cell viability, cells were washed with 100 μL PBS twice and then lysed using 40 μL lysis solution (4 mM EDTA, 0.2% Triton X-100) for 5 min at room temperature (RT) on an orbital shaker at 200 rpm. Then 10 μL of the lysate was mixed with 90 μL of enzyme-substrate mixture (as described above) in a white 96 well plate and luminescence was measured immediately using a plate-reader (Fluoroscan Ascent, Thermo Scientific). The data is expressed as % viability compared to the untreated (no-rotenone) control.\nThe cytoprotective effects of representative compounds of Formula (I) were further examined in vitro in response to rotenone toxicity at (10 μM). […] Cells were treated with the representative compounds of Formula (I) compounds (10 μM) for 2 days before cells were challenged with 10 μM rotenone.\nVitamin K, Menadione and Idebenone were used as comparative controls."}},
  "data": [
    {"molecule": "COc1ccc(CCNC(=O)CCCC2=C(C)C(=O)c3ccccc3C2=O)cc1OC", "note": "[UTA #77, N-(3,4-dimethoxyphenethyl)-4-(3-methyl-1,4-naphthoquinone-2-yl)butanamide]", "values": [
      {"measurement": "Bloody stools (in words)", "setting": "[1]", "value": "reduction in bloody stools"},
      {"measurement": "Body weight loss (in words)", "setting": "[1]", "value": "less weight loss than DSS controls"},
      {"measurement": "Disease activity index (in words)", "setting": "[1]", "value": "reduced disease activity"},
      {"measurement": "Stool consistency (in words)", "setting": "[1]", "value": "improved stools"},
      {"measurement": "viability at 10 µM", "setting": "HepG2 cells", "value": 95.9, "unit": "%"}
    ]}
  ]
}
